The conditions of series [1]: in vitro; reactive sulphydryl groups released; cited from earlier work.
The conditions of series [2]: sodium lauryl sulfate and beeswax emulsion, pH 6.8 to 7.5; with time and accelerated tests at 40° C.; cited from earlier work.
Series [3] is described as follows: percutaneous absorption through dermis only human cadaver skin. Format: in vitro ADME. The following applies: isolated dermis. How it is done:
The formulations A.S. 1-139E, A.S. 1-81B, A.S. 1-135C, A.S. 1-135G, and A.S. 1-81 G were tested on a minimum of triplicate sections from three different cadaver skin donors and three different porcine skin donors for the percutaneous absorption of allantoin over a 48-hour dose period. The intent of this study was to mimic the absorption of allantoin directly into the capillary bed, while the dermis only study attempted to mimic the loss of skin barrier function due to broken skin or blisters. In addition, each formulation was tested in at least triplicate membrane chambers. At preselected times after dosing, the dermal receptor solution was removed in its entirety, replaced with fresh receptor solution, and an aliquot saved for subsequent analysis. The samples were analyzed for the allantoin using high performance liquid chromatography with UV and MS detection (HPLC-UV-MS). The bottom table of FIG. 3 lists a remanufacture of the 9% allantoin cream (A.S. 1-153H) to achieve a better viscosity of the final product.

The test system of series [4] is calluses and other forms of hyperkeratization. The settings on record: lower concentrations; cited from earlier work.
A further series has as its system psoriatic scales. The settings on record: in vitro incubation with allantoin solution; cited from earlier work.

In the case of `NC(=O)NC1NC(=O)NC1=O` (centres unmarked) [allantoin], the protein dispersing activity entry in series [1] was “confirm the protein dispersing activity”. Further, the stability of allantoin result in series [2] is recorded as “degrades significantly”. Further, in series [3], the “penetration of allantoin when the skin's barrier has been damaged or removed” value was “increases significantly”. In addition, the “concentration loosening the desmosomes (protein bridges)” value in series [4] is < 1%. Moreover, the “concentration showing keratolytic activity on psoriatic scales” value in the series with psoriatic scales is recorded as ≥ 0.2%.

The values above are taken from patent US20170105967A1, “COMPOSITIONS AND METHODS OF TREATMENT OF INFLAMMATORY SKIN CONDITIONS USING ALLANTOIN” (Scioderm, Inc., priority 2010, published 2017).
